Measured values reported in patent US8071117B2, “Pheromones” (East Malling Research Limited, priority 2004, dated 2011).
“Also recorded” adds a separate entry of the source.

How the values were obtained:
male apple leaf midges = assay: Field studies: sticky delta traps baited with synthetic lures in apple orchards; type: in vivo, Dasineura mali; conditions: for males caught: 19-27 May 2004; for attractiveness to male apple leaf midges (in words): in vivo; for average male midges caught: 5 replicate traps, 7 May-20 May 2004, East Malling; for average male apple leaf midges caught: 24-27 May 2004
Description: A) Sticky delta traps baited with the synthetic lures impregnated with racemic (Z)-13-acetoxy-8-heptadecen-2-one were deployed in apple orchards. Large numbers of male apple leaf midges were caught in traps baited with the compound dispensed into the atmosphere from rubber septa.

[1] = system: male midge EAG preparation (raspberry cane midge); assay: GC-EAG analysis with male midge EAG preparation; parameters: species or system Resseliella theobaldi; conditions: volatiles from female midges, polar GC column
Description: GC-EAG analyses were carried out with a […] GC (Agilent) fitted with capillary GC columns ([…]×0.32 mm i.d.) coated with polar (Wax10; Supelco) and non-polar (SPB 1; Supelco) phases. Injection was splitless (220° C.) and detection was by FID (250°). The oven temperature was programmed from 50° C. for 2 min, then at 10° C./min to 250° C. The GC column effluent was split (1:1) between the FID and a silanised glass T-piece in the column oven. Nitrogen (500 ml/min) was blown continuously over the EAG preparation and every 17 sec this was diverted through the T-piece for 3 sec, blowing the contents over the EAG preparation, as described by Cork et al. (1991).
Following experience working with other midge species, the EAG preparation was set up by suspending the whole insect between glass electrodes containing electrolyte (0.1 M potassium chloride with 10% polyvinylpyrrolidone added to reduce evaporation). The ends of both antennae were inserted into the recording electrode and the body into the reference electrode. The electrodes were inserted into silver/silver chloride electrodes held in micromanipulators on the portable EAG device developed by Syntech (INR-02; Syntech, Hilversum, The Netherlands).
Major female-specific component is at 14.24 min; 2-undecanone at 9.07 min, 2-acetoxyundecane at 9.77 min and 2-undecanol at 10.45 min. EAG signals at 13.2 min and 14.9 min are probably interference spikes.

[2] = Rate of release of pheromone components from lures in laboratory wind tunnel; type: physicochemical; conditions: for Mean release rate: 27° C., 8 km/hr wind speed; for Mean ratio (release rate to the major component): major component = 100
Description: Measurements were made of the rates of release of the components from lures maintained in a laboratory wind tunnel at 27° C. and 8 km/hr wind speed. Volatiles were collected onto Porapak Q under same conditions for approximately 2 hours and the collections were analysed by Gas Chromatography with a flame ionisation detector using a polar column.
Release rates (ng/hr) and their ratios to the major component are shown.

[3] = system: male raspberry cane midges; assay: Field studies: sticky traps baited with rubber septum or polythene vial lures in raspberry plantations; type: in vivo, Resseliella theobaldi; conditions: for Mean total number males captured per trap (n): Log10(n + 1) / Mean total number males captured per trap (n): n: 11 May-7 Jun 2005, 10 plantations; for attractiveness to raspberry cane midge males (in words): field tests
Description: • A) Sticky traps baited with a rubber septum or polythene vial lure containing 100 microgrammes of racemic 2-acetoxy-5-undecanone were deployed in ten raspberry plantations at Belks farm, Otham, Kent, Beech Farm, West Peckham Kent and East Malling Research between 11 May and 31 May 2005. An average of 153 male raspberry cane midges were caught, per trap, compared to an average of 1 in similar traps not baited with a lure. […] Sticky traps baited with a rubber septa or polythene vial lure containing 100 micrograms of racemic 2-acetoxy-5-undecanone alone or in admixture with 30 micrograms of racemic 2-undecanol, 30 micrograms of undecanone and 30 micrograms of racemic 2-undecyl acetate were deployed in ten raspberry plantations, 4 at Belks farm, Otham, Kent, 4 at Beech Farm, West Peckham Kent and 2 at East Malling Research, Kent between 11 May and 7 Jun. 2005 in a randomised complete block experimental design with the 10 different plantations as blocks.
The baited traps caught an average of 201 male raspberry cane midges per trap compared to an average of 1 in similar traps not baited with a lure.

For `CCCCC(CCC/C=C\CCCCCC(C)=O)OC(C)=O` (racemic) [racemic (Z)-13-acetoxy-8-heptadecen-2-one, (Z)-13-acetoxy-8-heptadecen-2-one], the “distance at which lures attract significant numbers of males” value (male apple leaf midges; 100 micrograms lure) was “at least 50 m”, the males caught (male apple leaf midges; 100 micrograms lure, 10 m from isolated infested orchard) was 563 and the males caught (male apple leaf midges; 100 micrograms lure, 20 m from isolated infested orchard) was 348. The males caught (male apple leaf midges; 100 micrograms lure, 30 m from isolated infested orchard) was 148, the males caught (male apple leaf midges; 100 micrograms lure, 40 m from isolated infested orchard) was 266 and the males caught (male apple leaf midges; 100 micrograms lure, 50 m from isolated infested orchard) was 103. The “attractiveness to male apple leaf midges (in words)” value (male apple leaf midges) was “Large numbers”, the “attractiveness to male apple leaf midges (in words)” value (male apple leaf midges; listed as 13-acetoxy-8-heptadecen-2-one) was “strongly attractive effect” and the “attractiveness to male apple leaf midges (in words)” value (male apple leaf midges; listed as (Z)-13-acetoxy-8-heptadecen-2-one) was “racemic mixtures work exceptionally well”. For the same molecule, the “apple leaf midges attracted to a trap” value (male apple leaf midges; one test, in one day, released at approximately 1 ng/hr) was 1,600, the “average male midges caught” value (male apple leaf midges; rubber septa 10 micrograms) was 1201 and the “average male midges caught” value (male apple leaf midges; rubber septa 100 micrograms) was 4037. For the same molecule, the “average male apple leaf midges caught” value (male apple leaf midges; rubber septum lure 1 microgram) was 12, the “average male apple leaf midges caught” value (male apple leaf midges; rubber septum lure 3 microgram) was 97 and the “average male apple leaf midges caught” value (male apple leaf midges; rubber septum lure 10 microgram) was 273.
In the case of `CCCCCCC(=O)CCC(C)OC(C)=O` (single isomer, unassigned) [major female-specific component, 2-acetoxy-5-undecanone], the EAG response [1] is reported as “EAG response was always observed”.
In the case of `CCCCCCCCCC(C)OC(C)=O` (racemic) [2-undecyl acetate, 2-acetoxyundecane], the Mean release rate ([2]; Interval 3 days, Septa) is reported as 30.8 ng/h, the “Mean ratio (release rate to the major component)” value (shortened to “Mean ratio”) ([2]; Interval 3 days, Septa) is reported as 38 and the Mean release rate ([2]; Interval 3 days, Vial) is reported as 23.8 ng/h. The “Mean ratio” value ([2]; Interval 3 days, Vial) was 64, the Mean release rate ([2]; Interval 5 days, Vial) was 20.6 ng/h and the “Mean ratio” value ([2]; Interval 5 days, Vial) was 44. The Mean release rate ([2]; Interval 11 days, Septa) was 14.5 ng/h, the “Mean ratio” value ([2]; Interval 11 days, Septa) was 43 and the Mean release rate ([2]; Interval 11 days, Vial) was 31.7 ng/h. The “Mean ratio” value ([2]; Interval 11 days, Vial) was 39, the Mean release rate ([2]; Interval 25 days, Vial) was 21.8 ng/h and the “Mean ratio” value ([2]; Interval 25 days, Vial) was 31. For the same molecule, the Mean release rate ([2]; Interval 26 days, Septa) was 8.9 ng/h, the “Mean ratio” value ([2]; Interval 26 days, Septa) was 30 and the EAG response [1] was “probably responses”.
For `CCCCCCCCCC(C)=O` [2-undecanone], the Mean release rate ([2]; Interval 3 days, Septa) was 21.6 ng/h, the “Mean ratio” value ([2]; Interval 3 days, Septa) was 26 and the Mean release rate ([2]; Interval 3 days, Vial) was 41.2 ng/h. For the same molecule, the “Mean ratio” value ([2]; Interval 3 days, Vial) was 111, the Mean release rate ([2]; Interval 5 days, Vial) was 39.4 ng/h and the “Mean ratio” value ([2]; Interval 5 days, Vial) was 84. The Mean release rate ([2]; Interval 11 days, Septa) was 14.3 ng/h, the “Mean ratio” value ([2]; Interval 11 days, Septa) was 42 and the Mean release rate ([2]; Interval 11 days, Vial) was 39.6 ng/h. The “Mean ratio” value ([2]; Interval 11 days, Vial) was 48, the Mean release rate ([2]; Interval 25 days, Vial) was 21.6 ng/h and the “Mean ratio” value ([2]; Interval 25 days, Vial) was 31. The Mean release rate ([2]; Interval 26 days, Septa) was 9.9 ng/h and the “Mean ratio” value ([2]; Interval 26 days, Septa) was 34.
In the case of `CCCCCCCCCC(C)O` (racemic) [2-undecanol], the Mean release rate ([2]; Interval 3 days, Septa) is reported as 20.2 ng/h, the “Mean ratio” value ([2]; Interval 3 days, Septa) is reported as 25 and the Mean release rate ([2]; Interval 3 days, Vial) is reported as 19.5 ng/h. For the same molecule, the “Mean ratio” value ([2]; Interval 3 days, Vial) was 52, the Mean release rate ([2]; Interval 5 days, Vial) was 21.1 ng/h and the “Mean ratio” value ([2]; Interval 5 days, Vial) was 45. For the same molecule, the Mean release rate ([2]; Interval 11 days, Septa) was 27.4 ng/h, the “Mean ratio” value ([2]; Interval 11 days, Septa) was 81 and the Mean release rate ([2]; Interval 11 days, Vial) was 29.4 ng/h. The “Mean ratio” value ([2]; Interval 11 days, Vial) was 36, the Mean release rate ([2]; Interval 25 days, Vial) was 17.4 ng/h and the “Mean ratio” value ([2]; Interval 25 days, Vial) was 25. The Mean release rate ([2]; Interval 26 days, Septa) was 7.4 ng/h, the “Mean ratio” value ([2]; Interval 26 days, Septa) was 25 and the EAG response [1] was “probably responses”.
For `CCCCCCC(=O)CCC(C)OC(C)=O` (racemic) [racemic 2-acetoxy-5-undecanone, 2-acetoxy-5-undecanone], the Mean release rate ([2]; Interval 3 days, Septa) was 81.8 ng/h, the “Mean ratio” value ([2]; Interval 3 days, Septa) was 100 and the Mean release rate ([2]; Interval 3 days, Vial) was 37.1 ng/h. For the same molecule, the “Mean ratio” value ([2]; Interval 3 days, Vial) was 100, the Mean release rate ([2]; Interval 5 days, Vial) was 47.0 ng/h and the “Mean ratio” value ([2]; Interval 5 days, Vial) was 100. For the same molecule, the Mean release rate ([2]; Interval 11 days, Septa) was 33.8 ng/h, the “Mean ratio” value ([2]; Interval 11 days, Septa) was 100 and the Mean release rate ([2]; Interval 11 days, Vial) was 81.8 ng/h. The “Mean ratio” value ([2]; Interval 11 days, Vial) was 100, the Mean release rate ([2]; Interval 25 days, Vial) was 69.8 ng/h and the “Mean ratio” value ([2]; Interval 25 days, Vial) was 100. For the same molecule, the Mean release rate ([2]; Interval 26 days, Septa) was 29.5 ng/h, the “Mean ratio” value ([2]; Interval 26 days, Septa) was 100 and the “average male raspberry cane midges caught per trap” value ([3]; 100 microgrammes lure, rubber septum or polythene vial, ten plantations, 11 May-31 May 2005) was 153. For the same molecule, the “Mean total number males captured per trap (n): Log10(n + 1)” value ([3]; Dispenser Septa) was 1.969, the “Mean total number males captured per trap (n): n” value ([3]; Dispenser Septa) was 218 and the “Mean total number males captured per trap (n): Log10(n + 1)” value ([3]; Dispenser Vial) was 2.042. The “Mean total number males captured per trap (n): n” value ([3]; Dispenser Vial) was 230, the “attractiveness to raspberry cane midge males (in words)” value [3] was “highly attractive; also recorded: attracted a significant number” and the “attractiveness to raspberry cane midge males (in words)” value ([3]; listed as 2-acetoxy-5-undecanone) was “work exceptionally well”.
